Measurements: ChEMBL document CHEMBL1201862, “PubChem BioAssay data set” (2004)
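96-well plates; 48 h exposure; 5 concentrations. Endpoints by linear interpolation between flanking doses. Not reached: highest tested concentration assigned. GI50 = concentration required for 50% inhibition of growth.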 Active and inactive are the calls of the source. Cut-off read from the data, not from the text of the source: active = GI50 up to about 1.1 µM and inactive = higher.

Tests used:
Experiment in all cases: inhibition of tumour cell growth, NCI panel, 48 h
[1] = system: SK-MEL-5
[2] = system: SW-620
[3] = system: T47D
[4] = system: EKVX
[5] = system: HT-29
[6] = system: OVCAR-3
[7] = system: NCI/ADR-RES
[8] = system: HOP-92
[9] = system: RXF 393
[10] = system: A549
[11] = system: RPMI-8226
[12] = system: SNB-19
[13] = system: SK-MEL-2
[14] = system: COLO 205
[15] = system: A498
[16] = system: SF-268
[17] = system: K562
[18] = system: SF-295
[19] = system: HCT-116
[20] = system: SR

SMILES | GI50 [1] | GI50 [2] | GI50 [3] | GI50 [4] | GI50 [5] | GI50 [6] | GI50 [7] | GI50 [8] | GI50 [9] | GI50 [10] | GI50 [11] | GI50 [12] | GI50 [13] | GI50 [14] | GI50 [15] | GI50 [16] | GI50 [17] | GI50 [18] | GI50 [19] | GI50 [20]
COc1ccc(OC)c(C(Cc2ccnc3ccccc23)Cc2ccnc3ccccc23)c1 | 3.66 µM (inactive) | > 10 µM (inactive) | 6.25 µM (inactive) | 5.15 µM (inactive) | 6.5 µM (inactive) | > 10 µM (inactive) | 8.39 µM (inactive) | 4.09 µM (inactive) | > 10 µM (inactive) | > 10 µM (inactive) | 5.18 µM (inactive) | > 10 µM (inactive) | 9.73 µM (inactive) | 8.04 µM (inactive) | > 10 µM (inactive) | > 10 µM (inactive) | 4.53 µM (inactive) | 6.71 µM (inactive) | 0.857 µM (active) | 
Nc1ccc(C(=O)NN2C(=O)[C@H](Cl)C2c2ccc(Cl)cc2)cc1 (some centres not stated) | 1.93 µM (inactive) | 2.11 µM (inactive) | 1.85 µM (inactive) | 3.55 µM (inactive) | 0.156 µM (active) | 0.57 µM (active) | 1.65 µM (inactive) | 1.87 µM (inactive) | 2.72 µM (inactive) | 2.45 µM (inactive) | 1.21 µM (inactive) | 1.67 µM (inactive) | 1.89 µM (inactive) | 1.93 µM (inactive) |  | 1.06 µM (active) | 1.82 µM (inactive) | 4.55 µM (inactive) | 0.434 µM (active) | 0.324 µM (active)
C1CSCCCSCCCSCCCSCCCSCCCSCCCSCCCSC1 | 85.9 µM (inactive) | > 100 µM (inactive) | > 100 µM (inactive) | > 100 µM (inactive) | > 100 µM (inactive) | > 100 µM (inactive) | > 100 µM (inactive) | > 100 µM (inactive) | > 100 µM (inactive) | > 100 µM (inactive) | > 100 µM (inactive) | > 100 µM (inactive) | > 100 µM (inactive) | > 100 µM (inactive) | > 100 µM (inactive) | > 100 µM (inactive) | > 100 µM (inactive) | > 100 µM (inactive) | > 100 µM (inactive) | 
Fc1ccc(C(OCCN2CCC3CCC(C2)N3Cc2cc3ccccc3[nH]2)c2ccc(F)cc2)cc1 (configuration not stated) | 1.72 µM (inactive) | 1.56 µM (inactive) | 1.59 µM (inactive) | 1.7 µM (inactive) | 1.08 µM (active) | 1.77 µM (inactive) | 1.57 µM (inactive) | 1.84 µM (inactive) | 1.59 µM (inactive) | 2.01 µM (inactive) | 1.42 µM (inactive) | 2.54 µM (inactive) | 1.71 µM (inactive) | 0.962 µM (active) | 1.47 µM (inactive) | 2.04 µM (inactive) | 1.13 µM (inactive) | 1.96 µM (inactive) | 1.33 µM (inactive) | 
CSc1cc(-c2cccs2)sc1-c1cc(SC)c(-c2sc(-c3sc(-c4cccs4)cc3SC)cc2SC)s1 | > 100 µM (inactive) | > 100 µM (inactive) | > 100 µM (inactive) | > 100 µM (inactive) | > 100 µM (inactive) | > 100 µM (inactive) | > 100 µM (inactive) | > 100 µM (inactive) | > 100 µM (inactive) | > 100 µM (inactive) | > 100 µM (inactive) | > 100 µM (inactive) | > 100 µM (inactive) | > 100 µM (inactive) | > 100 µM (inactive) | > 100 µM (inactive) | > 100 µM (inactive) | > 100 µM (inactive) | > 100 µM (inactive) | 
C[S+]([O-])c1ncc2c(n1)-c1ccccc1OC2 (configuration not stated) | 78.3 µM (inactive) | > 100 µM (inactive) | 35.2 µM (inactive) | 70.1 µM (inactive) | 61.5 µM (inactive) | 56.2 µM (inactive) | > 100 µM (inactive) | 49.3 µM (inactive) | > 100 µM (inactive) | > 100 µM (inactive) | 81.8 µM (inactive) | > 100 µM (inactive) | > 100 µM (inactive) | 68.1 µM (inactive) |  | > 100 µM (inactive) | > 100 µM (inactive) | > 100 µM (inactive) | > 100 µM (inactive) | > 100 µM (inactive)
COc1ccc(C2SCC(=O)N2NC(=O)c2ccc(NC(C)=O)cc2)cc1 (configuration not stated) | > 100 µM (inactive) | > 100 µM (inactive) | > 100 µM (inactive) | > 100 µM (inactive) | > 100 µM (inactive) | > 100 µM (inactive) | > 100 µM (inactive) | 38 µM (inactive) | > 100 µM (inactive) | > 100 µM (inactive) | > 100 µM (inactive) | > 100 µM (inactive) | > 100 µM (inactive) | > 100 µM (inactive) | > 100 µM (inactive) | > 100 µM (inactive) | > 100 µM (inactive) | > 100 µM (inactive) | > 100 µM (inactive) | 
CC(C)=CCC/C(C)=C/CCC(C(=O)COCc1ccccc1)P1(=O)OC(C)(C)CN1C(C)(C)C (configuration not stated) | 47.6 µM (inactive) | > 100 µM (inactive) | 31.8 µM (inactive) | > 100 µM (inactive) | 33.2 µM (inactive) | 37.6 µM (inactive) | 31.5 µM (inactive) |  | 87.5 µM (inactive) | 35.6 µM (inactive) |  | > 100 µM (inactive) | 35.5 µM (inactive) | 42.2 µM (inactive) |  | 33.1 µM (inactive) | 31.9 µM (inactive) | 46.6 µM (inactive) | 33.1 µM (inactive) | 21.8 µM (inactive)
O=S(=O)(c1ccccc1)n1c(C(O)c2ccccc2)cc2ccccc21 (configuration not stated) | 14.6 µM (inactive) | 24 µM (inactive) | 21.3 µM (inactive) | 17.4 µM (inactive) | 13.4 µM (inactive) | 16.7 µM (inactive) | 13.1 µM (inactive) | 12.7 µM (inactive) | 14.3 µM (inactive) | 14.5 µM (inactive) | > 100 µM (inactive) | 13.7 µM (inactive) | 17.1 µM (inactive) | 15.9 µM (inactive) | 10.2 µM (inactive) | 16.3 µM (inactive) | 49.4 µM (inactive) | 16.9 µM (inactive) | 16.5 µM (inactive) | 
Nc1ncnc2c1N=C(c1ccccc1)CC(c1ccccc1)N2 (configuration not stated) |  | > 100 µM (inactive) | > 100 µM (inactive) | > 100 µM (inactive) | > 100 µM (inactive) | > 100 µM (inactive) | 59.2 µM (inactive) | > 100 µM (inactive) | > 100 µM (inactive) | > 100 µM (inactive) | > 100 µM (inactive) | > 100 µM (inactive) | > 100 µM (inactive) | > 100 µM (inactive) |  | > 100 µM (inactive) | > 100 µM (inactive) | > 100 µM (inactive) | > 100 µM (inactive) | > 100 µM (inactive)
Cc1ccc(C(=O)NCc2ccccc2)cc1/N=N/N(C)C | > 74.3 µM (inactive) | > 100 µM (inactive) | 39.7 µM (inactive) | > 100 µM (inactive) | > 58.7 µM (inactive) | 44.3 µM (inactive) | 86.3 µM (inactive) | 65 µM (inactive) |  | > 77.8 µM (inactive) | 40.9 µM (inactive) | > 100 µM (inactive) | > 100 µM (inactive) | > 100 µM (inactive) |  | > 62.5 µM (inactive) | > 100 µM (inactive) | > 71.9 µM (inactive) | > 72.1 µM (inactive) | 60 µM (inactive)
C#CCSc1cnc2ccccc2c1Sc1c[nH]c2ccccc2c1=O | 15.6 µM (inactive) | 24.8 µM (inactive) | 10.9 µM (inactive) | 19.1 µM (inactive) | 21.2 µM (inactive) | 23.4 µM (inactive) | 33 µM (inactive) | 16.1 µM (inactive) | 13.6 µM (inactive) | 14.4 µM (inactive) | 4.2 µM (inactive) | 16.1 µM (inactive) | 19.1 µM (inactive) | 24 µM (inactive) |  | 29.9 µM (inactive) | 9.35 µM (inactive) | 24.1 µM (inactive) | 13.3 µM (inactive) | 3.86 µM (inactive)
CC(C)(C)C1=NC(=S)SC2=NC(=O)C3(NN21)c1ccccc1-c1ccccc13 | 3.44 µM (inactive) | > 10 µM (inactive) | 2.04 µM (inactive) | 2.67 µM (inactive) | > 10 µM (inactive) |  | 5.41 µM (inactive) | > 10 µM (inactive) | > 10 µM (inactive) | 7.26 µM (inactive) | 5.08 µM (inactive) | > 10 µM (inactive) |  | > 10 µM (inactive) |  | > 10 µM (inactive) | 5.05 µM (inactive) | > 10 µM (inactive) |  | 4.59 µM (inactive)
COc1cccc(-c2cc(=O)c3ccccc3o2)c1N | 42.8 µM (inactive) | 15.5 µM (inactive) | 11.9 µM (inactive) | 16.2 µM (inactive) | 12.8 µM (inactive) | > 100 µM (inactive) | 33 µM (inactive) | > 83.4 µM (inactive) | 45 µM (inactive) | > 91.8 µM (inactive) | > 76.6 µM (inactive) | 51.9 µM (inactive) | 27.4 µM (inactive) | 9.93 µM (inactive) |  | 61.2 µM (inactive) | > 75.3 µM (inactive) | > 66.1 µM (inactive) | 52 µM (inactive) | > 100 µM (inactive)
NCCS(=O)(=O)O [TAURINE] | > 100 µM (inactive) | > 100 µM (inactive) | > 100 µM (inactive) | > 100 µM (inactive) | > 100 µM (inactive) | > 100 µM (inactive) | > 100 µM (inactive) | > 100 µM (inactive) |  | > 100 µM (inactive) | > 100 µM (inactive) | > 100 µM (inactive) | > 100 µM (inactive) | > 100 µM (inactive) |  | > 100 µM (inactive) | > 100 µM (inactive) | > 100 µM (inactive) | > 100 µM (inactive) | > 100 µM (inactive)
